Test results from paper PMC6063804 (EJNMMI Research, 2018).
“And” between values parts separate entries of the source, which are not always exact repeats. Equal entries are not always repeated.

Tests used:
[1] = test system: ion channel binding site of NMDA receptors; test: [^18F]PK-209 brain PET, baseline versus S-ketamine infusion; assay type: in vivo, human; details: for V ND / k 3 / K i / % ΔKi: individual subjects S6–S10; for K i: net influx rate; for % ΔKi: percentage change from the baseline scan after ketamine
Protocol: In total, 20 PET scans were acquired on a Gemini TF-64 PET/CT scanner (Philips Medical Systems, Cleveland, OH, USA). Five subjects underwent [^18F]PK-209 test–retest (TRT) scans 31–61 days apart over a period of 211 days. Another five subjects underwent baseline and ketamine scans 13–161 days apart over a period of 258 days. At the start of each scan [^18F]PK-209 was injected as an intravenous bolus with a mean injected activity of 187 ± 7 MBq. All scans were performed between 12:00 and 15:00 h to minimize diurnal variation. Duration of daylight on each scan day was calculated to investigate seasonal changes in tracer binding. Dynamic PET data were acquired for 120 min and binned into 25 time frames (1 × 15, 3 × 5, 3 × 10, 4 × 60, 2 × 150, 2 × 300, 10 × 600 s). PET was followed by a low-dose CT (30 mAs, 120 kVp) for attenuation correction and localization. Data were reconstructed using a three-dimensional row action maximum likelihood reconstruction algorithm (3-D RAMLA). Acquired PET data were normalized and corrected for dead time, randoms, scatter, attenuation, and decay.
The (S+)-isomer of ketamine (0.5 mg · kg^−1) was dissolved in NaCl 50 mL and administered intravenously in a pseudo-steady state model with a sub-acute loading dose. First, ketamine was administered for 40 min at a rate of 0.006 mg · kg^−1 · min^−1 followed by a 130 min equilibrium phase at 0.002 mg · kg^−1 · min^−1. [^18F]PK-209 injection and start of PET were performed at 10 min into the equilibrium phase, following 0.26 mg · kg^−1 administration in the preceding 50 min.
Prior to the PET studies, structural three-dimensional coronal T1-weighted magnetic resonance images (MRI) were acquired for all subjects on a 1.5T Sonata scanner (Siemens Medical Solutions, Erlangen, Germany) with 160 coronal slices using echo time 3.97 ms, repetition time 2700 ms, flip angle 8°, and voxel size 1.0 × 1.5 × 1.0 mm^3. Subject motion was checked by visual inspection of the alignment of intrasubject PET frames, and no frames were excluded due to excessive movement. T1-weighted MRI scans were co-registered to an average of the PET frames from ~ 4–70 min p.i. using VINCI software. The co-registered MRI scans were segmented into gray matter (GM), white matter, and extra-cerebral fluid, using PVE-lab. Subsequently, 68 regions of interest (ROIs), including whole brain, were derived from the Hammers atlas and used to extract GM time-activity curves (TACs). As a last step, the TACs of 60 out of the 67 ROIs were redefined into nine volume-weighted ROIs by combining the radioactivity at each timepoint according to the equation Bq¯=∑iαi×Bqi/∑iαi , where αi is the volume (in mm^3) of region i, and Bqi the counts per mm^3 of region i. The selection of ROIs was based on the widespread NMDA-R availability in the brain: frontal, temporal, occipital, and parietal cortices; hippocampus; thalamus; insula; brainstem; dorsal striatum; and cerebellum, as well as whole brain GM from the Hammers atlas. Standardized uptake values (SUV; equalling measured activity divided by injected dose per body weight) were calculated for whole brain GM.
Using the metabolite-corrected arterial plasma input function, all GM TACs were fitted to single-tissue (1T2k), two-tissue irreversible (2T3k), and reversible (2T4k) compartmental models, both with and without an additional parameter for fractional blood volume (VB). The non-metabolite-corrected arterial whole blood curve was used as input function for VB. The optimal tracer kinetic model for describing in vivo kinetics of [^18F]PK-209 was determined according to the Akaike Information Criterion (AIC). Depending on the model preference, outcome measures were the net influx constant (Ki = K1 k3/(k2 + k3)) or the distribution volume (VT=K1/k2(1+k3/k4)) . For subsequent group level analysis (e.g., TRT variability and ketamine effects), all scans were analyzed using the same, most preferred, tracer kinetic model. […]

ion channel of NMDA-R = test system: ion channel of NMDA-R; set-up: method as in PMID 25451213; details: cited from earlier work
[2] = cited from earlier work
NMDA-R = details: cited from earlier work
[3] = 2T3k_VB, single scan IF, baseline scan
[4] = 2T3k_VB, single scan IF, ketamine scan
[5] = mean ketamine versus mean baseline, single scan IF

Compound: CSc1ccc(Cl)c(NC(=N)N(C)c2cccc(OC[18F])c2)c1 [[^18F]PK-209, 3-(2-chloro-5-(methylthio)phenyl)-1-(3-([^18F]fluoromethoxy)phenyl)-1-methylguanidine]
- Mean baseline K i ([1]; 2T3k_VB, population IF): 0.0106 min⁻¹
- Mean ketamine K i ([1]; 2T3k_VB, population IF): 0.0107 min⁻¹
- Mean baseline K 1 ([1]; 2T3k_VB, single scan IF): 0.492 mL · cm^3 · min^−1
- Mean baseline K i ([1]; 2T3k_VB, single scan IF): 0.0129 min⁻¹
- Mean baseline V ND ([1]; 2T3k_VB, single scan IF): 9.25
- Mean baseline k 3 ([1]; 2T3k_VB, single scan IF): 0.0016 min⁻¹
- Mean ketamine K 1 ([1]; 2T3k_VB, single scan IF): 0.516 mL · cm^3 · min^−1
- Mean ketamine K i ([1]; 2T3k_VB, single scan IF): 0.0128 min⁻¹
- Mean ketamine V ND ([1]; 2T3k_VB, single scan IF): 9.22
- Mean ketamine k 3 ([1]; 2T3k_VB, single scan IF): 0.0015 min⁻¹
- V ND [1, 3]: 9.78 and 6.54 and 11.72 and 7.74 and 10.51
- k 3 [1, 3]: 0.0005 min⁻¹ and 0.0029 min⁻¹ and 0.0007 min⁻¹ and 0.0026 min⁻¹ and 0.0014 min⁻¹
- V ND [1, 4]: 9.66 and 9.75 and 10.30 and 6.56 and 9.84
- k 3 [1, 4]: 0.0014 min⁻¹ and 0.0012 min⁻¹ and 0.0008 min⁻¹ and 0.0020 min⁻¹
- Mean baseline K i ([1]; 2T3k_VB, within-subject IF): 0.0147 min⁻¹
- Mean ketamine K i ([1]; 2T3k_VB, within-subject IF): 0.0162 min⁻¹
- mean SUV90–120 ([1]; baseline scans): 1.53
- mean SUVAUC ([1]; baseline scans): 289 ± 51 SUV·min
- increase in mean SUV90–120 from baseline to ketamine scans ([1]; in vivo): 10%
- increase in whole brain SUVAUC following ketamine administration ([1]; individual subjects 6–10): 27% and 1% (2×) and 17% and 8%
- mean SUV90–120 ([1]; ketamine scans): 1.68
- mean SUVAUC ([1]; ketamine scans): 321 ± 66 SUV·min
- % Change of mean K i ([1]; mean ketamine versus mean baseline, population IF): 1%
- % Change of mean K 1 [1, 5]: 5%
- % Change of mean K i [1, 5]: −1%
- % Change of mean k 3 [1, 5]: −9%
- % Change of mean K i ([1]; mean ketamine versus mean baseline, within-subject IF): 10%
- K i ([1]; 2T3k_VB, population IF, baseline scan): 0.0071 min⁻¹ and 0.0150 min⁻¹ and 0.0183 min⁻¹ and 0.0114 min⁻¹ and 0.0011 min⁻¹
- K i ([1]; 2T3k_VB, population IF, ketamine scan): 0.0152 min⁻¹ and 0.0162 min⁻¹ and 0.0167 min⁻¹ and 0.0044 min⁻¹ and 0.0010 min⁻¹
- K i [1, 3]: 0.0046 min⁻¹ and 0.0182 min⁻¹ and 0.0083 min⁻¹ and 0.0193 min⁻¹ and 0.0143 min⁻¹
- K i [1, 4]: 0.0129 min⁻¹ and 0.0118 min⁻¹ and 0.0084 min⁻¹ and 0.0124 min⁻¹ and 0.0186 min⁻¹
- K i ([1]; 2T3k_VB, within-subject IF, baseline scan): 0.0038 min⁻¹ and 0.0170 min⁻¹ and 0.0220 min⁻¹ and 0.0200 min⁻¹ and 0.0105 min⁻¹
- K i ([1]; 2T3k_VB, within-subject IF, ketamine scan): 0.0128 min⁻¹ and 0.0169 min⁻¹ and 0.0201 min⁻¹ and 0.0118 min⁻¹ and 0.0192 min⁻¹
- % ΔKi ([1]; population IF): 113% and 8% and −9% and −62% and −10%
- % ΔKi ([1]; single scan IF): 182% and 1% and 30%
- % ΔKi ([1]; within-subject IF): 237% and 0% and 83%
- decrease in K1 after ketamine ([1]; subjects 8 and 9, respectively): 18% and 11%
- selectivity for the ion channel of NMDA-R over other targets (ion channel of NMDA-R): high selectivity
- LogDoct,7.4 [2]: 1.45
- reduction in mean SUVAUC after MK-801 administration (NMDA-R; non-human primate): 15%
- volume of distribution (VT) compared with baseline (NMDA-R; rhesus monkeys, IV 0.3 mg ∙ kg^−1 MK-801 30 min before PET): reduced the volume of distribution (VT) compared with baseline in two out of three subjects
- retention in NMDA-R-rich cortical regions relative to the cerebellum (NMDA-R; rhesus monkeys): prolonged retention
